The target of one series is recombinant M^Pro (Severe acute respiratory syndrome coronavirus 2, UniProt P0DTD1). Description: SARS-CoV-2 Mpro screening and IC50 determination (QS1 fluorogenic substrate, Drag assay). It is filed as biochemical. Particulars: for inhibition at 10 µM: read-out: M^Pro (%inh)@10μM.
Another series in a line: in vitro. To be noted: African monkey.
The target of another series is PL^Pro (Severe acute respiratory syndrome coronavirus 2, UniProt P0DTD1). Description: SARS-CoV-2 PLpro screening (Ac-LRGG-ACC substrate). It is filed as biochemical. Particulars: read-out: PL^Pro (%inh)@10μM.
Series [1] addresses Human Recombinant Cathepsin S (Homo sapiens, UniProt P25774). Nature of the series: Cathepsin selectivity screening, Cat S (Z-Val-Val-Arg-AMC). To be noted: Z-Val-Val-Arg-AMC substrate. The format is biochemical.
The target in series [2] is Human Recombinant Cathepsin L (Homo sapiens, UniProt P07711). Nature of the series: Cathepsin selectivity screening, Cat L (Z-Phe-Arg-AMC). Particulars: Z-Phe-Arg-AMC substrate. The format is biochemical.
Sequence of Human Recombinant Cathepsin L (P07711 114-333): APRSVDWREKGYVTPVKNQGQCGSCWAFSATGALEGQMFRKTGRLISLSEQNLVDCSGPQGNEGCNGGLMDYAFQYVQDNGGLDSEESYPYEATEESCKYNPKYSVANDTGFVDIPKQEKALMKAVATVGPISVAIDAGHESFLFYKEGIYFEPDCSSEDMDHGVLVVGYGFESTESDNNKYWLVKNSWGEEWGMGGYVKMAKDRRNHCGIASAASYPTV
The target in series [3] is Human Recombinant Cathepsin B (Homo sapiens, UniProt P07858). Description: Cathepsin selectivity screening, Cat B (Z-Phe-Arg-AMC). The format is biochemical. To be noted: Z-Phe-Arg-AMC substrate.
Series [4] deals with T1, Human Recombinant Cathepsin K (Homo sapiens, UniProt P43235).
T1 sequence (P43235 115-329): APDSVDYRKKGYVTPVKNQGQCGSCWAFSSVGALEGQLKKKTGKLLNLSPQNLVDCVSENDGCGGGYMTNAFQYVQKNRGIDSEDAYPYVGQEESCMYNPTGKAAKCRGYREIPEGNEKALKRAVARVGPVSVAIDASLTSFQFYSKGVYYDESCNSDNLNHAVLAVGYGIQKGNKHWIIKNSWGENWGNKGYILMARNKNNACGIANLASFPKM
Description: Cathepsin selectivity screening, Cat K (Z-Phe-Arg-AMC). It is filed as biochemical. Particulars: Z-Phe-Arg-AMC substrate.

Setting [5] is: M^Pro IC50 (μM), recombinant M^Pro, 20 μM QS1 (Ac-Abu-Tle-Leu-Gln-ACC) substrate, Table 1.
The mark [6] stands for this setting: Table 5, read-out: IC50 (μM) CatS.
Where [7] appears, read: Table 5, read-out: IC50 (μM) CatL.
Where [8] appears, read: Table 5, read-out: IC50 (μM) CatB.
Where [9] appears, read: Table 5, read-out: IC50 (μM) CatK.
[10] abbreviates: M^Pro IC50 (μM), recombinant M^Pro, 20 μM QS1 substrate, Table 3.
The mark [11] stands for this setting: IC50 (μM) M^Pro, recombinant M^Pro, 20 μM QS1 substrate, Table 5.

Each structure is given as a SMILES string. Where two headings read alike, the source gives them in different places.

Here are results for 21 compounds from PMC12516390 (ACS Medicinal Chemistry Letters, 2025).

One may read the IC50 as the midpoint of a concentration-inhibition curve.

Sequence of Human Recombinant Cathepsin S (P25774 115-331): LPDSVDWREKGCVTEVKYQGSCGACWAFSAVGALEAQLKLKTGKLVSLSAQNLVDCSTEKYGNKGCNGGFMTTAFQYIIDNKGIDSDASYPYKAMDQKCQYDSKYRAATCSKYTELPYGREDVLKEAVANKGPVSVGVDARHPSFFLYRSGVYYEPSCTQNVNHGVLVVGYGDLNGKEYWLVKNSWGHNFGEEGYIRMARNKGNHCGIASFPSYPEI

Turning to `COc1cccc(-c2ccc(C(=O)N[C@@H](CC(C)C)C(=O)N[C@H](C#N)C[C@@H]3CCNC3=O)cc2)c1` [6e], the IC50 at recombinant M^Pro (M^Pro IC50 (μM), Table 2) turned out to be 0.786 µM; at recombinant M^Pro (setting [5]), 0.786 µM. The values for the inhibition at 10 µM at recombinant M^Pro and at PL^Pro were above 95% and below 50%, respectively. Further, the CC50 in the series “in vitro” was above 100000 nM.

Regarding `COc1ccc(-c2ccc(C(=O)N[C@@H](CC(C)C)C(=O)N[C@H](C#N)C[C@@H]3CCNC3=O)cc2)cc1OC` [6f], the concentration for half-maximal inhibition (IC50) amounted to 0.859 µM at recombinant M^Pro (M^Pro IC50 (μM), Table 2) and 0.859 µM at recombinant M^Pro (setting [5]). In addition, the inhibition at 10 µM at recombinant M^Pro was above 95%; at PL^Pro, below 50%. Also, the CC50 in the series “in vitro” was above 100000 nM.

As for `CC(C)C[C@H](NC(=O)c1ccc(-c2cccc3nn(C)cc23)cc1)C(=O)N[C@H](C#N)C[C@@H]1CCNC1=O` [6j], the IC50 on recombinant M^Pro (M^Pro IC50 (μM), Table 2) was 0.622 µM; on recombinant M^Pro (setting [5]), 0.622 µM. Besides, the inhibition at 10 µM on recombinant M^Pro was above 95%; at PL^Pro, below 50%. The compound further displayed a CC50 in “in vitro” above 100000 nM.

On to `CC(C)C[C@H](NC(=O)c1ccc(-c2ccc3c(cnn3C)c2)cc1)C(=O)N[C@H](C#N)C[C@@H]1CCNC1=O` [6l], for which the inhibition at 10 µM is above 95% at recombinant M^Pro and below 50% at PL^Pro. Besides, the IC50 on recombinant M^Pro (read-out: M^Pro IC50, Table 2) was 0.56 µM; at recombinant M^Pro (read-out: M^Pro IC50, recombinant M^Pro, 20 μM QS1 (Ac-Abu-Tle-Leu-Gln-ACC) substrate, Table 1), 0.56 µM. Moreover, the CC50 in the series “in vitro” is above 100000 nM.

For `COc1cccc(-c2ccc(C(=O)N[C@@H](CC3CCCCC3)C(=O)N[C@H](C#N)C[C@@H]3CCNC3=O)cc2)c1` [12k], the IC50 on recombinant M^Pro (setting [5]) was 2.01 µM; in series [1] (setting [6]), 0.011 µM; in series [2] (setting [7]), above 10 µM; in series [3] (setting [8]), above 10 µM; in series [4] (setting [9]) it was above 10 µM. The results for the inhibition at 10 µM at recombinant M^Pro and on PL^Pro were below 95% and below 50%, respectively.

`COc1ccc(-c2ccc(C(=O)N[C@@H](CC3CCCCC3)C(=O)N[C@H](C#N)C[C@@H]3CCNC3=O)cc2)cc1` [12l]: the IC50 on recombinant M^Pro (setting [5]) was 1.76 µM; in series [1] (setting [6]) it was 0.006 µM; in series [2] (setting [7]) it was above 10 µM; in series [3] (setting [8]), above 10 µM; in series [4] (setting [9]), 1.64 µM. Also, the figures for the inhibition at 10 µM at recombinant M^Pro and at PL^Pro were below 95% and below 50%, respectively.

In the case of `CC(C)C[C@H](NC(=O)c1ccc(-c2cccc3nn(C)cc23)cc1F)C(=O)N[C@H](C#N)C[C@@H]1CCNC1=O` [18a], the IC50 on recombinant M^Pro (M^Pro IC50 (nM), Table 4) was 0.163 µM; at recombinant M^Pro (setting [10]), 0.162 µM; in series [1] (Table 4, read-out: CatS IC50), 0.0279 µM; in series [2] (Table 4, read-out: CatL IC50), above 10 µM; in series [3] (Table 4, read-out: CatB IC50), 0.142 µM; in series [4] (Table 4, read-out: CatK IC50), 0.0485 µM. Also, in “in vitro”, the CC50 was above 100000 nM.

As to `COc1ccc(-c2ccc(C(=O)N[C@@H](CC(C)C)C(=O)N[C@H](C#N)C[C@@H]3CCNC3=O)c(F)c2)cc1` [18b], the IC50 at recombinant M^Pro (M^Pro IC50 (nM), Table 4) was 0.178 µM; at recombinant M^Pro (setting [10]) it was 0.178 µM; in series [1] (Table 4, read-out: CatS IC50), 0.232 µM; in series [2] (Table 4, read-out: CatL IC50), above 10 µM; in series [3] (Table 4, read-out: CatB IC50) it was 0.106 µM; in series [4] (Table 4, read-out: CatK IC50), 0.077 µM. In “in vitro”, this compound gave a CC50 of 51600 nM.

As to `CC(C)C[C@H](NC(=O)c1ccc(-c2ccc3c(cnn3C)c2)cc1F)C(=O)N[C@H](C#N)C[C@@H]1CCNC1=O` [18c], the half-inhibitory concentration (IC50) at recombinant M^Pro (setting [10]) came to 0.307 µM. The CC50 in “in vitro” was above 100000 nM.

For `COc1ccc(-c2ccc(C(=O)N[C@@H](CC(C)C)C(=O)N[C@H](C#N)C[C@@H]3CCNC3=O)c(C)c2)cc1` [18k], the 50% inhibitory concentration (IC50) on recombinant M^Pro (setting [10]) was found to be 0.085 µM. Also, the CC50 in the series “in vitro” was above 100000 nM.

As to `COc1ccc(-c2ccc(C(=O)N[C@@H](CC(C)C)C(=O)N[C@H](C#N)C[C@@H]3CCNC3=O)c(C(F)(F)F)c2)cc1` [18m], on recombinant M^Pro (setting [10]), the half-inhibitory concentration (IC50) came to 0.096 µM. The compound also had a CC50 in “in vitro” of 70600 nM.

With `CC(C)C[C@H](NC(=O)c1ccc(-c2ccc3c(cnn3C)c2)cc1Cl)C(=O)N[C@H](C#N)C[C@@H]1CCNC1=O` [18o], the IC50 at recombinant M^Pro (setting [10]) came to 0.052 µM. The compound also showed a CC50 in “in vitro” of 83500 nM.

`CC(C)C[C@H](NC(=O)c1ccc(-c2cccc3nn(C)cc23)cc1Cl)C(=O)N[C@H](C#N)C[C@@H]1CCNC1=O` [18p]: the IC50 on recombinant M^Pro (setting [10]) is 0.068 µM. The compound further displayed a CC50 in the series “in vitro” above 100000 nM.

For `CC(C)C[C@H](NC(=O)c1ccc(-c2ccc3cnn(C)c3c2)cc1Cl)C(=O)N[C@H](C#N)C[C@@H]1CCNC1=O` [18q], the IC50 at recombinant M^Pro (setting [10]) is 0.053 µM. In addition, in “in vitro”, the CC50 was determined as 77400 nM.

In the case of `COc1ccc(-c2ccc(C(=O)N[C@@H](CC(C)C)C(=O)N[C@H](C#N)C[C@@H]3CCNC3=O)c(Cl)c2)cc1` [18r], the IC50 at recombinant M^Pro (M^Pro IC50 (nM), Table 4) is 0.045 µM; at recombinant M^Pro (setting [10]) it was 0.045 µM; in series [1] (Table 4, read-out: CatS IC50), 0.0246 µM; in series [2] (Table 4, read-out: CatL IC50), above 10 µM; in series [3] (Table 4, read-out: CatB IC50) it was 0.193 µM; in series [4] (Table 4, read-out: CatK IC50), 0.123 µM. In the series “in vitro”, this compound showed a CC50 of 40100 nM.

Consider `COc1ccc(-c2ccc(C(=O)N3C[C@@H]4CCC[C@@H]4[C@H]3C(=O)N[C@H](C#N)C[C@@H]3CCNC3=O)c(Cl)c2)cc1` [22k], for which the IC50 was 0.743 µM on recombinant M^Pro (setting [11]); 0.718 µM in series [1] (setting [6]); above 10 µM in series [2] (setting [7]); above 10 µM in series [3] (setting [8]); 0.68 µM in series [4] (setting [9]).

Turning to `COc1cccc(-c2ccc(C(=O)N3C[C@@H]4CCC[C@@H]4[C@H]3C(=O)N[C@H](C#N)C[C@@H]3CCNC3=O)c(Cl)c2)c1` [22l], the half-maximal inhibitory concentration (IC50) at recombinant M^Pro (setting [11]) is 1.06 µM; in series [1] (setting [6]), 0.538 µM; in series [2] (setting [7]), above 10 µM; in series [3] (setting [8]) it was above 10 µM; in series [4] (setting [9]), 1.07 µM.

For `COc1ccc(-c2ccc(C(=O)N[C@@H](CC3CCCCC3)C(=O)N[C@H](C#N)C[C@@H]3CCNC3=O)c(F)c2)cc1` [23a], the concentration for half-maximal inhibition (IC50) at recombinant M^Pro (setting [11]) is 0.807 µM; in series [1] (setting [6]), 0.016 µM; in series [2] (setting [7]), above 10 µM; in series [3] (setting [8]), above 10 µM; in series [4] (setting [9]), above 10 µM.

On to `COc1cccc(-c2ccc(C(=O)N[C@@H](CC3CCCCC3)C(=O)N[C@H](C#N)C[C@@H]3CCNC3=O)c(F)c2)c1` [23b], for which the IC50 on recombinant M^Pro (setting [11]) was 0.691 µM; in series [1] (setting [6]) it was 0.059 µM; in series [2] (setting [7]), above 10 µM; in series [3] (setting [8]) it was 0.238 µM; in series [4] (setting [9]) it was 1.34 µM.

Consider `COc1ccc(-c2ccc(C(=O)N[C@@H](CC3CCCCC3)C(=O)N[C@H](C#N)C[C@@H]3CCNC3=O)c(Cl)c2)cc1` [23c], for which the concentration for half-maximal inhibition (IC50) at recombinant M^Pro (setting [11]) is 0.077 µM; at recombinant M^Pro (M^Pro IC50 (μM), recombinant M^Pro, Table 6), 0.077 µM; in series [1] (setting [6]) it was 0.011 µM; in series [2] (setting [7]), above 10 µM; in series [3] (setting [8]) it was 0.104 µM; in series [4] (setting [9]), 1.52 µM. Moreover, in the series “in vitro”, the CC50 is above 100000 nM.

On to `COc1cccc(-c2ccc(C(=O)N[C@@H](CC3CCCCC3)C(=O)N[C@H](C#N)C[C@@H]3CCNC3=O)c(Cl)c2)c1` [23d], for which the concentration for half-maximal inhibition (IC50) on recombinant M^Pro (setting [11]) was 0.094 µM; in series [1] (setting [6]), 0.011 µM; in series [2] (setting [7]), above 10 µM; in series [3] (setting [8]) it was 0.137 µM; in series [4] (setting [9]), 0.887 µM. In the series “in vitro”, the CC50 was above 100000 nM.
